Data on six molecules can be found in patent US5444089A, “Neutral lipids from endosperm of Job's tears” (Li; Da P., priority 1992, dated 1995).

The test system of data set [1] is sarcoma (S-180). The data set is described as follows: Anti-tumor effect on sarcoma (S-180) in vivo. Set-up: species or system mice. The method, then:
Sarcoma (S-180) tissues growing luxuriantly were prepared to be a cell suspension with physical saline 1:3(w/v). Mice were divided into groups at random the next day and were administered with doses of NLEJ emulsion of 25 ml/kg iv×7 (qd), doses of cyclophosphamide of 30 mg/kg ip×2 (second and fourth), doses of mitoxantrone (DHAD) of 2 mg/kg ip×2 (second and fourth), and doses of mitomycin of 1.5 mg/kg ip×2 (second and fourth). Tumor tissues from all treatments were sampled and weighed to calculate tumor inhibition ratios 14 days after inoculating.

For data set [2], the system named is human hepatoma (QGY). Description: Growth of human hepatoma (QGY) in nude mice. The data set is classed as in vivo, human (nude mouse). Conditions: 30 mg/kg ip daily 7 days. The method, then: Hepatoma (QGY) tissues growing luxuriantly were homogenized in physical saline (1:4) and prepared as a suspension. Each nude mouse was inoculated subcutaneously with 0.2 ml of the suspension at its armpit. The nude mice were divided into groups at random the next day. The doses of NLEJ emulsion were 25 ml/kg, 12.5 ml/kg and 6.25 ml/kg. The emulsion was administrated intravenously at the tail of the nude mouse every day for 10 days. One group of mice were administered with cyclophosphamide (CTX) of a dose of 30 mg/kg intraperitoneally every day for 7 days. The nude mice of the control group were administered with a similar emulsion just absent the NLEJ (blank emulsion) at a dose of 25 ml/kg intravenously at the tail of the nude mouse every day for 10 days. Tumor tissues of all nude mice were sampled and weighed 30 days after inoculating.

For data set [3], the system named is melanoma (B16). Description: Metastasis of melanoma (B16) in lung in vivo. The following applies: 100 mg/kg ip × 2 (3, 5). More on the design: species or system C57BL/6 mouse. On the procedure:
Melanoma B16 tissues growing at logarithmic stage were digested with 0.15% trypsin, and 0.2 ml suspension of 2.5×10^5 cells/ml in RPMI 1640 medium from the tissues was inoculated intravenously into the tail of each C57BL/6 mouse. Mice were divided into groups at random 3 days after inoculating and were administered different emulsions. Mice were killed 21 days after inoculating, and metastasized colonies of melanoma in mouse's lung were counted to calculate the inhibition ratio and compare the different effects of different administrations of NLEJ emulsion on metastasis of malanoma in lung. 100 mg/kg cyclophosphamide (CTX) was administered in the same way to compare with NLEJ emulsion.

Data set [4] has as its system Walaer carcinosarcoma (solid) W256. Description: Anti-tumor effect on Walaer carcinosarcoma (solid) W256 in vivo. Set-up: species or system rat. The method, then:
Ascites Walaer carcinosarcoma (solid) W256 tissues growing luxuriantly were digested to be a cell suspension. The cell suspension was regulated to have a 1-2×10^7 /ml cell density. 0.2 ml of the suspension was inoculated under the skin of armpit of each rat. The rats were divided into groups at random the next day and were administered with doses of NLEJ emulsion of 20 ml/kg, 10 ml/kg, 5 ml/kg iv×10 (qd), and doses of […], the doses of cyclophosphamide were 30 mg/kg iv×7 (qd), mg/kg iv×2 (third and fifth). Tumor tissues from all treatments were sampled and weighed to calculate tumor inhibition ratios 14 days after inoculating.

Data set [5] relates to leukocyte. The data set is described as follows: Protection on decrease of leukocyte induced by cyclophosphamide chemotherapy. The data set is classed as in vivo, Swiss mice. Conditions: CTX 45 mg/kg ip × 1, 5, 9. On the procedure:
(§1) 80 Swiss mice were divided into eight groups at random, were administered with cyclophosphamide at 45 mg/kg ip×3 (second, sixth and tenth), or harringtonine (HRTN) at 1 mg/kg ip×3 (second, sixth and tenth). To each of two of the medicine groups were administered NLEJ emulsion at the same time, at doses of 2.4 ml/kg and 6.25 ml/kg iv×7 (every day). At the beginning and on the fourth day of each administration, blood was sampled from the angle of each mouse's eye, and leukocytes of the blood were counted.

Data set [6] deals with mouse Ehrlich ascites tumor. The following applies: cited from earlier work.
Data set [7] deals with human small cell lung cancer (SPC). The data set is described as follows: Growth of human small cell lung cancer (SPC) in nude mice. The data set is classed as in vivo, human (nude mouse). The following applies: 40 mg/kg iv×10 (qd). On the procedure: SPC tumor tissues growing luxuriantly were cut into pieces of 2 mm, one of the pieces was inoculated under the skin of the armpit of each nude mouse. Nude mice were divided into groups at random the next day and one group was administered with the NLEJ emulsion at a dose of 25 ml/kg iv×10 (qd), one group of mice was administered with dacarbazine (DTIC) at a dose of 40 mg/kg iv×10 (qd), and the nude mice of the control group were administered with blank emulsion at a dose of 25 ml/kg iv×10 (qd). Tumor tissues of all nude mice were sampled and weighed 30 days after inoculating.

Data set [8] has as its system leukocyte. Description: Protection on decrease of leukocyte induced by harringtonine chemotherapy. The data set is classed as in vivo, Swiss mice. Conditions: HRTN 1 mg/kg ip × 1, 5, 9. The method, then:
as §1

Turning to `O=C1c2c(O)ccc(O)c2C(=O)c2c(NCCNCCO)ccc(NCCNCCO)c21` [DHAD, mitoxantrone], in data set [1] (2 mg/kg ip × 2 (1, 3)), the “Inhibition (%)” value turned out to be 50%.
With `O=P1(N(CCCl)CCCl)NCCCO1` (stereo not shown) [CTX, cyclophosphamide], the Inhibition (%) in data set [2] is recorded as 91.00%; in data set [3] (Table 4) it was 95.90%; in data set [3] (Table 5), 98.67%; in data set [3] (Table 6), 100%; in data set [4] (10 mg iv × 2), 38.58%; in data set [4] (30 mg iv × 7), 88.13%. Also, in data set [1] (30 mg/kg ip × 2 (1, 3)), the “Inhibition (%)” value is on record as 39.4%. In data set [2], this molecule came in with a Tumor of 0.28 ± 0.08 g. The “Colony No.” value stood at 18.80 ± 8.50 in data set [3] (Table 4), 8.0 ± 6.22 in data set [3] (Table 5) and 0 in data set [3] (Table 6). For the same molecule, the “Weight (tumor)” value in data set [4] (10 mg iv × 2) turned out to be 2.07 ± 1.11 g; in data set [4] (30 mg iv × 7) it was 0.4 ± 0.15 g. Also, the Leucocyte number in data set [5] (time 0) is on record as 62 × 100/mm^3; in data set [5] (time 3), 49 × 100/mm^3; in data set [5] (time 6), 45 × 100/mm^3; in data set [5] (time 9) it was 41 × 100/mm^3; in data set [5] (time 12), 41 × 100/mm^3; in data set [5] (time 15), 42 × 100/mm^3. Besides, the Leucocyte number in data set [5] (time 18) is recorded as 45 × 100/mm^3; in data set [5] (time 21) it was 47 × 100/mm^3; in data set [5] (time 24), 49 × 100/mm^3.
As to `CCCCCC/C=C\CCCCCCCC(=O)O[C@H](C)[C@H](C)OC(=O)CCCCCCCCC/C=C/CCCCCC` [coixenolide], the “Growth of mouse Ehrlich ascites tumor” value in data set [6] (Ukita 1961) was “inhibit the growth”. For the same molecule, the Anti-tumor activity result in data set [6] (pure compound) is “strong anti-tumor activity”.
In data set [7], `CN(C)/N=N/c1[nH]cnc1C(N)=O` [DTIC, dacarbazine] returned an Inhibition (%) of 94.94% and a Tumor of 0.18 ± 0.04.
For the molecule `COC(=O)C[C@](O)(CCC(C)(C)O)C(=O)O[C@@H]1C(OC)=C[C@]23CCCN2CCc2cc4c(cc2[C@H]13)OCO4` [HRTN, harringtonine], the Leucocyte number in data set [8] (time 0) was 60 × 100/mm^3; in data set [8] (time 3), 75 × 100/mm^3; in data set [8] (time 6), 65 × 100/mm^3; in data set [8] (time 9) it was 50 × 100/mm^3; in data set [8] (time 12), 44 × 100/mm^3; in data set [8] (time 15), 43 × 100/mm^3. Also, the results for the Leucocyte number in data set [8] (time 18), in data set [8] (time 21) and in data set [8] (time 24) were 49 × 100/mm^3, 53 × 100/mm^3 and 56 × 100/mm^3, respectively.
On to `CO[C@@]12[C@H](COC(N)=O)C3=C(C(=O)C(C)=C(N)C3=O)N1C[C@@H]1N[C@@H]12` [Mitomycin, mitomycin], for which, in data set [1] (1.5 mg/kg ip × 2 (1, 3)), the “Inhibition (%)” value is 39.4%.
